Assay results published in article PMC7915026, “Sulfaguanidine Hybrid with Some New Pyridine-2-One Derivatives: Design, Synthesis, and Antimicrobial Activity against Multidrug-Resistant Bacteria as Dual DNA Gyrase and DHFR Inhibitors” (Antibiotics, 2021).
In brackets after ≈: the same amount, converted by molar mass. Where two headings read alike, the source gives them in different places.

What was measured:
Format in all cases: cell-based
MDRB strains = assay: MIC and MBC, ranges over the MDRB panel; conditions: four MDRB strains
Text: Norfloxacin was used as a positive control for the multidrug resistance study.
The experiment was repeating for three-times.

E. coli ATCC 25922 = assay: MIC and MBC determination; conditions: E. coli
P. aeruginosa ATCC 27853 = assay: MIC and MBC determination; conditions: Pseudomonas aeruginosa, ATCC27853, P. aeruginosa

## COc1ccc(/C=C(\C#N)C(=O)Nc2ccc(S(=O)(=O)NC(=N)N)cc2)cc1O [Compound 2d, N-(4-(N-Carbamimidoylsulfamoyl)phenyl)-2-cyano-3-(3-hydroxy-4-methoxyphenyl) acryl-amide]
MDRB strains
  MBC range: 9.38 to 18.77 µM
  MIC range: 4.69 to 9.38 µM
E. coli ATCC 25922
  MBC: 4.66 ± 0.21 µM (≈ 1.94 µg/mL)
  MIC: 2.33 ± 0.32 µM (≈ 0.968 µg/mL)
E. coli ATCC 25922; Escherichia coli, ATCC25922, read-out: MBC
  MBC: 4.66 µM (≈ 1.94 µg/mL)
E. coli ATCC 25922; Escherichia coli, ATCC25922, read-out: MIC
  MIC: 2.33 µM (≈ 0.968 µg/mL)
P. aeruginosa ATCC 27853; read-out: MBC
  MBC: 25.5 ± 0.65 µM (≈ 10.6 µg/mL)
P. aeruginosa ATCC 27853; read-out: MIC
  MIC: 13.4 ± 0.25 µM (≈ 5.57 µg/mL)
